The text below walks through data of EP0857779A1, “PROCESS FOR THE BIODEGRADATION OF AROMATIC COMPOUNDS AND SYNTHESIS OF PIGMENTS AND COLORANTS, ALCALOIDS AND POLYMERS, WITH THE USE OF THE R[…] ESCHERICHIA COLI P260” (priority 1996, dated 1998).

For test [1], the target named is T1, 4-HPA hydroxylase of K. pneumoniae (Klebsiella oxytoca, UniProt Q48440).
T1 construct: expressed in transfected cells; host or cells: E. coli CC118 (K-12) transformed with pG260 = E. coli P260 (CECT 4627)
The test can be described thus: Hidroxylase activity expressed by E. coli P260 on different aromatic compounds. Type of test: biochemical. Set-up: concentration or dose not given beside the values. The following applies: compound as organic substrate of the enzyme expressed by E. coli P260. The text has this:
(§1) By means of hydroxylation, this enzyme transforms 3-HPA and 4-HPA into 3,4-DHPA which, after the subdequent action of a dioxygenase, loses its aromaticity. For the isolation of these genes, the chromosomic DNA of K. pneumoniae was isolated and digested with the restriction enzyme Bam Hl. As a cloning vector the plasmid pUC18Not was chosen (Herrero et al., 1990; J. Bacteriol. 72:6557-67), digested with BamHl and dephosphorilated. Bonding mixtures were used in the transformation of the mutant strain W-21 of E. coli (Lacrec A), a mutant deficient in the 4-HPA hydroxylase enzyme. The transformants were select on plates that contained ampicillin (100 µg/ml), IPTG and X-Gal and subsequently on selected media with Ampicillin and 4-HPA as the sole source of carbon and energy. A recombinant plasmid complemented the 4-HPA mutation of E. coli W-21 and treating this transformant with acridin orange caused reversion to the mutant phenotype (due to loss of plasmids). […] Synthesis of the enzyme was checked by determining enzymatic activity in "standard" conditions, by means of a spectrophotometric test (Martin et al., 1991; J. Gen. Microbiol. 132: 621-628). In this way it was established that the enzyme synthesized constitutively in the strains of E. coli derived from K-12 (strains incapable of metabolizing 4-HPA because they lack all the genes of the degradative route), unlike what occurs in K. pneumoniae M5a1 or E. coli W, where synthesis of the enzyme is inducible by 3-HPA and/or 4-HPA. The E. coli K-12 (E. coli CC118) strains, transformed by the recombinant plasmid, were called E. coli P260. […]
The E. coli P260 cultures produced a blackish brown pigmentation in LB or BHI as a consequence of the expression of the cloned genes. […] To investigate this hypothesis, several aromatic compounds were analyzed, different from 3-HPA and 4-HPA, as possible substrates of the enzyme (Table 2).

In a further test the test system is 4-HPA hidroxylase. Nature of the test: 4-HPA hydroxylase activity of strains, spectrophotometric test in standard conditions. Type of test: biochemical, K. pneumoniae.
From the text: as §1

The test system of another test is E. coli W-P260 strain. Nature of the test: Biodegradation (mineralization) of the aromatic compound by a growing culture, 14C-CO2 trapping and HPLC. Type of test: cell-based. The following applies: minimum PJC medium with glycerol and 4-HPA 2.5 mM, 30°C, 200 rpm. How it is done: In a test experiment, the following procedure was carried out: the E. coli W-P260 strain (obtained by transformation of the E. coli W-21 strain, mutant in hpa genes) was grown in a minimum PJC medium supplemented with glycerol and 4-HPA 2.5 mM (10% of which was marked with ^14C in the aromatic ring). Incubation was carried out at 30°C and with stirring (200 rpm). In order to quantify the biotransformation of the aromatic ring, the CO2 formed during the process was collected on NaOH 1N located in the lid of the matrass so that it would act as a trapping agent. Samples were taken at different times (Figure 3) so as to evaluate the formation of biomass (DO 680), release of CO2 (cpm) and the disappearance of 4 HPA (measurement of concentration by HPLC). In Figure 3 it may be observed how the mineralization capacity of the E. coli W-P260 strain achieves mineralization of the aromatic compound in 12 hours.

T1 sequence (Q48440 whole entry): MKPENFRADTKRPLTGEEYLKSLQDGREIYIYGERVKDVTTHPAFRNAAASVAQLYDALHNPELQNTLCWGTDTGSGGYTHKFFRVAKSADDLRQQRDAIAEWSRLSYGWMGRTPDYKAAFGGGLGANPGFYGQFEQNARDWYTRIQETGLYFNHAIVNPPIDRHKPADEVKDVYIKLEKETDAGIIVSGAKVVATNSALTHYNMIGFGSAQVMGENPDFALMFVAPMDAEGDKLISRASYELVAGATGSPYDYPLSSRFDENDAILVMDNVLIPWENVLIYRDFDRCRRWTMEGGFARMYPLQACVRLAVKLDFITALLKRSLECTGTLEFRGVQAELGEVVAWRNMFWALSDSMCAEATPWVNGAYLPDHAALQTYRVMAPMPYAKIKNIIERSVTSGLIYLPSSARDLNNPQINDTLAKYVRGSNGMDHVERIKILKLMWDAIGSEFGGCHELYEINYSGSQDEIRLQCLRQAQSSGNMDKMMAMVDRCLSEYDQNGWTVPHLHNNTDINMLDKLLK

With `N[C@@H](Cc1ccc(O)c(O)c1)C(=O)O` (racemic) [L-Dopa, DL-Dihydroxyphenylalanin], the “% ACTIVITY” value in test [1] was found to be 10%.
The same measure, in the same setting: for `O=C(O)Cc1ccccc1O` [2-HPA, 2-Hydroxyphenylacetate] the value was less than 5%; for `O=C(O)c1ccc(O)c(O)c1` [3,4-DHBA, 3,4-Dihydroxybenzoate], 30%; for `O=C(O)Cc1ccc(O)c(O)c1` [3,4-DHPA, 3,4-dihydroxyphenylacetate], 50%.
Consider `O=C(O)Cc1cccc(O)c1` [3-HPA], for which the “% ACTIVITY” value in test [1] is 100%. Besides, the 4-HPA hidroxylase in the test on 4-HPA hidroxylase (strain E. coli CC118, substrate growth Gly/4-HPA) was less than 1; with 4-HPA hidroxylase (strain E. coli P260, substrate growth Gly/4-HPA/Ap), 50±6; with 4-HPA hidroxylase (strain E. coli P260, substrate growth LB/Ap) it was 57±9; with 4-HPA hidroxylase (strain E. coli W-21 (plasmid), substrate growth Gly/4-HPA/Ap), 28±5; in the test on 4-HPA hidroxylase (strain E. coli W-21 (plasmid), substrate growth LB/Ap) it was less than 5; in the test on 4-HPA hidroxylase (strain E. coli W-21, substrate growth Gly/4-HPA), less than 1. Also, the 4-HPA hidroxylase in the test on 4-HPA hidroxylase (strain K. pneumoniae M5a1, substrate growth 4-HPA) is listed as 26±9; in the test with 4-HPA hidroxylase (strain K. pneumoniae M5a1, substrate growth LB), less than 1.
On to `O=C(O)c1ccc(O)cc1` [4-HBA, 4-Hydroxybenzoate], for which, in test [1], the “% ACTIVITY” value is reported as 15%.
Take `O=C(O)Cc1ccc(O)cc1` [4-HPA, 4-hydroxyphenylacetate]: the “% ACTIVITY” value in test [1] worked out at 100%. The “mineralization of the aromatic compound” value in the test with E. coli W-P260 strain turned out to be 12 h.
Take `Oc1ccccc1O` [Catecol]: the “% ACTIVITY” value in test [1] is 30%.
Same read-out and setting: the same measure for `N[C@@H](Cc1ccc(O)cc1)C(=O)O` [L-Tyr, L-Tyrosine]: 8%.
The same measure, in the same setting: the same measure for `O=C(O)Cc1ccccc1` [PA, Phenylacetic acid]: less than 5%.
